Data taken from patent US20260132125A1, “PESTICIDALLY ACTIVE FUSED BICYCLIC HETEROAROMATIC COMPOUNDS” (priority 2022, published 2026).

What was measured:
Format in all cases: in vivo
Spodoptera littoralis = assay: Example B6: activity against Spodoptera littoralis (Egyptian cotton leaf worm), cotton leaf discs; conditions: foliar, 72 h, 200 ppm, L1 larvae, 3 days after infestation, read-out: control (at least one of mortality, anti-feedant effect, growth inhibition)
How it was run: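 Leaf discs on agar sprayed with aqueous dilutions of 10′000 ppm DMSO stocks, dried, then infested with five L1 larvae. Mortality, anti-feeding and growth inhibition scored versus untreated 3 days after infestation; control given when any category exceeds untreated.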

Euschistus heros = assay: Example B3: activity against Euschistus heros (neotropical brown stink bug), soybean leaves; conditions: for percent effect (mortality or growth inhibition) at 200 ppm: 120 h, N2 nymphs, 5 days after infestation, read-out: effect in at least one of the two categories (mortality or growth inhibition)
Procedure: Soybean leaves on agar in 24-well microtiter plates were sprayed with aqueous test solutions prepared from 10′000 ppm DMSO stock solutions. After drying the leaves were infested with N2 nymphs. The samples were assessed for mortality and growth inhibition in comparison to untreated samples 5 days after infestation. The following compounds gave an effect of at least 80% in at least one of the two categories (mortality or growth inhibition) at an application rate of 200 ppm: […]

Diabrotica balteata = assay: Example B2: activity against Diabrotica balteata (corn root worm), maize sprouts; conditions: 96 h, L2 larvae, 4 days after infestation, read-out: effect in at least one of the two categories (mortality or growth inhibition)
How it was run: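 Maize sprouts on agar were sprayed with aqueous test solutions made from 10′000 ppm DMSO stocks, dried, then infested with 6–10 L2 larvae per well. Mortality and growth inhibition were scored against untreated samples 4 days after infestation, at an application rate of 200 ppm.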

Pseudoplusia includens = assay: Example B9: Pseudoplusia includens (soybean looper), larvicide, feeding/contact, soybean plants; conditions: Chrysodeixis includens; for percent effect (mortality or growth inhibition) at 50 ppm: 120 h, L2 larvae, 5 days after infestation, read-out: effect in at least one of the two categories (mortality or growth inhibition)
How it was run: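 Soybean plants sprayed, cut and held in dishes on wet filter paper; infested 1 d after application with 5 L2 larvae. Mortality and growth inhibition assessed 5 days after infestation; tested at 50 ppm.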

[1] = tested on: Carpocapsa (Cydia) pomonella; assay: Example B10: Carpocapsa (Cydia) pomonella (codling moth), larvicide, feeding/contact, diet cubes; conditions: 336 h, L1 larvae, 14 days after infestation, read-out: effect in at least one of the two categories (mortality or growth inhibition)
Procedure: Diet cubes coated with paraffin were sprayed with diluted test solutions in an application chamber. After drying off the treated cubes (10 replicates) were infested with 1 L1 larvae. Samples were incubated at 26-27° C. and checked 14 days after infestation for mortality and growth inhibition. The following compounds gave an effect of at least 80% in at least one of the two categories (mortality or growth inhibition) at an application rate of 50 ppm: […]

Chilo suppressalis = assay: Example B1: activity against Chilo suppressalis (striped rice stemborer), artificial diet; conditions: 144 h, 200 ppm, L2 larvae, 6 days after infestation, read-out: control (at least one of mortality, anti-feedant effect, growth inhibition)
How it was run: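 Diet-incorporation surface assay: aqueous dilutions of 10'000 ppm DMSO stock applied to artificial diet, dried; 6-8 L2 larvae/well; read day 6 post-infestation for mortality, antifeedant effect, growth inhibition vs untreated. Active if any category above untreated.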

Myzus persicae [2] = assay: Example B4: activity against Myzus persicae (green peach aphid), intrinsic activity; conditions: 120 h, test rate 12 ppm, 5 days after infestation
How it was run: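 Compounds from 10′000 ppm DMSO stocks were mixed into sucrose solution in 24-well plates sealed with Parafilm. Aphid-infested pea seedlings were set on the membrane and the plate inverted so aphids fed through it. Mortality scored 5 days after infestation.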

Plutella xylostella [3] = assay: Example B5: activity against Plutella xylostella (diamond back moth), artificial diet, eggs; conditions: 192 h, 8 days after infestation, read-out: effect in at least one of the two categories (mortality or growth inhibition)
How it was run: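 Artificial diet in 24-well plates was treated with aqueous dilutions of DMSO stocks, dried, then infested with Plutella eggs. Mortality and growth inhibition were scored against untreated samples 8 days after infestation; application rate 200 ppm.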

Myzus persicae [4] = assay: Example B7a: Myzus persicae feeding/contact activity, sunflower leaf discs; conditions: foliar, 144 h, mixed ages, 6 days after infestation
Procedure: (§1) Sunflower leaf discs were placed onto agar in a 24-well microtiter plate and sprayed with aqueous test solutions prepared from 10′000 ppm DMSO stock solutions. After drying, the leaf discs were infested with an aphid population of mixed ages. The samples were assessed for mortality 6 days after infestation.

Plutella xylostella [5] = assay: B14b: Plutella xylostella (diamond back moth), larvicide L3, feeding/contact, Chinese cabbage; conditions: 3 ppm
Text: Activity of compounds P5, P17 and P21 according to the preparatory examples and of a compound from WO 21/083936 against Spodoptera littoralis (Example B6 above), Chilo suppressalis (Example B1 above), Diabrotica balteata (Example B14a below), Plutella xylostella (Example B14b below) and Pseudoplusia includens (Example B9 above) is summarized in Table B14. B14a: Diabrotica balteata (Corn root worm). Larvicide, feeding/contact 3 Corn seedlings were placed on wetted filter paper in plastic cups, and 3 ml of diluted test solutions were pipetted onto them. The cups were infested with 10 L2 larvae and checked for mortality and growth regulation 5 days after treatment. B14b: Plutella xylostella (Diamond back moth). Larvicide L3, feeding/contact Chinese cabbage plants were sprayed with diluted test solutions in an application chamber. Cut off leaves were placed into petri dishes with wetted filter paper and infested 1 day after application with 10 L3 larvae. Samples were assessed 4 days after infestation for mortality and growth regulation.

Tetranychus urticae = assay: Example B8: activity against Tetranychus urticae (two-spotted spider mite), bean leaf discs; conditions: foliar, 192 h, mixed population (mobile stages), 8 days after infestation
Procedure: Bean leaf discs on agar in 24-well microtiter plates were sprayed with aqueous test solutions prepared from 10′000 ppm DMSO stock solutions. After drying the leaf discs were infested with a mite population of mixed ages. The samples were assessed for mortality on mixed population (mobile stages) 8 days after infestation.

Myzus persicae [6] = assay: Example B7b: Myzus persicae feeding/contact activity, eggplant leaf discs; conditions: foliar, 144 h, mixed ages, 6 days after infestation
Procedure: as §1, with “Eggplant” for “Sunflower”

SMILES	percent control (mortality, anti-feedant effect or growth inhibition) at 200 ppm (Spodoptera littoralis) [%]	percent effect (mortality or growth inhibition) at 200 ppm (Euschistus heros) [%]	percent effect (mortality or growth inhibition) at 200 ppm (Diabrotica balteata) [%]	percent effect (mortality or growth inhibition) at 50 ppm (Pseudoplusia includens) [%]	percent effect (mortality or growth inhibition) at 50 ppm [1] [%]	percent control (mortality, anti-feedant effect or growth inhibition) at 200 ppm (Chilo suppressalis) [%]	mortality at 12 ppm (Myzus persicae [2]) [%]	percent effect (mortality or growth inhibition) at 200 ppm (Plutella xylostella [3]) [%]	mortality at 200 ppm (Myzus persicae [4]) [%]	mortality at 3 ppm (Plutella xylostella [5]) [%]	mortality at 200 ppm (Euschistus heros) [%]	mortality at 3 ppm (Pseudoplusia includens; Pseudoplusia includens, 3 ppm) [%]	mortality at 200 ppm (Tetranychus urticae) [%]	mortality at 200 ppm (Myzus persicae [6]) [%]
C[C@H](Nc1ncnc2c(C(F)(F)F)cc(I)cc12)c1ncnn1-c1cc(C(N)=O)ncn1 [Compound P1, 6-[5-[(1S)-1-[[6-iodo-8-(trifluoromethyl)quinazolin-4-yl]amino]ethyl]-1,2,4-triazol-1-yl]pyrimidine-4-carboxamide]	≥ 80	≥ 80	≥ 80	≥ 80	≥ 80	≥ 80	≥ 80	≥ 80						
C[C@H](Nc1ncnc2c(Cl)cc(I)cc12)c1ncnn1-c1cc(C(N)=O)ncn1 [Compound P2, 6-[5-[(1S)-1-[(8-chloro-6-iodo-quinazolin-4-yl)amino]ethyl]-1,2,4-triazol-1-yl]pyrimidine-4-carboxamide]	≥ 80		≥ 80	≥ 80	≥ 80	≥ 80	≥ 80	≥ 80	≥ 80					
CNC(=O)c1cc(-n2ncnc2[C@H](C)Nc2ncnc3c(C(F)(F)F)cc(Cl)cc23)ncn1 [Compound P3, 6-[5-[(1S)-1-[[6-chloro-8-(trifluoromethyl)quinazolin-4-yl]amino]ethyl]-1,2,4-triazol-1-yl]-N-methyl-pyrimidine-4-carboxamide]	≥ 80	≥ 80	≥ 80	≥ 80	≥ 80	≥ 80	≥ 80	≥ 80						
CNC(=O)c1cc(-n2ncnc2[C@H](C)N(C)c2ncnc3c(C(F)(F)F)cc(Cl)cc23)ncn1 [Compound P9, 6-[5-[(1S)-1-[[6-chloro-8-(trifluoromethyl)quinazolin-4-yl]-methyl-amino]ethyl]-1,2,4-triazol-1-yl]-N-methyl-pyrimidine-4-carboxamide]	≥ 80	≥ 80	≥ 80	≥ 80	≥ 80	≥ 80	≥ 80	≥ 80	≥ 80					
C[C@H](Nc1ncnc2c(Br)cc(Br)cc12)c1ncnn1-c1cc(C(N)=O)ncn1 [Compound P10, 6-[5-[(1S)-1-[(6,8-dibromoquinazolin-4-yl)amino]ethyl]-1,2,4-triazol-1-yl]pyrimidine-4-carboxamide]	≥ 80		≥ 80	≥ 80	≥ 80	≥ 80	≥ 80	≥ 80		100	0	80		
CNC(=O)c1cc(-n2ncnc2[C@H](C)Nc2ncnc3c(I)cc(Cl)cc23)ncn1 [Compound P14, 6-[5-[(1S)-1-[(6-chloro-8-iodo-quinazolin-4-yl)amino]ethyl]-1,2,4-triazol-1-yl]-N-methyl-pyrimidine-4-carboxamide]	≥ 80		≥ 80	≥ 80		≥ 80	≥ 80	≥ 80	≥ 80					
C[C@H](Nc1ncnc2c(I)cc(Cl)cc12)c1ncnn1-c1ncc(C(N)=O)s1 [Compound P29, 2-[5-[(1S)-1-[(6-chloro-8-iodo-quinazolin-4-yl)amino]ethyl]-1,2,4-triazol-1-yl]thiazole-5-carboxamide]	≥ 80		≥ 80			≥ 80	≥ 80	≥ 80	≥ 80					
C[C@@H](c1ncnn1-c1cc(C(N)=O)ncn1)N(C)c1ncnc2c(C(F)(F)F)cc(Cl)cc12 [Compound P50, 6-[5-[(1S)-1-[[6-chloro-8-(trifluoromethyl)quinazolin-4-yl]-methyl-amino]ethyl]-1,2,4-triazol-1-yl]pyrimidine-4-carboxamide]	≥ 80	≥ 80	≥ 80	≥ 80		≥ 80	≥ 80	≥ 80					≥ 80	≥ 80
C[C@@H](c1ncnn1-c1cc(C(=O)NCCC#N)ncn1)N(C)c1ncnc2c(C(F)(F)F)cc(Cl)cc12 [Compound P53, 6-[5-[(1S)-1-[[6-chloro-8-(trifluoromethyl)quinazolin-4-yl]-methyl-amino]ethyl]-1,2,4-triazol-1-yl]-N-(2-cyanoethyl)pyrimidine-4-carboxamide]	≥ 80		≥ 80	≥ 80	≥ 80	≥ 80	≥ 80	≥ 80						
C[C@H](Nc1ncnc2c(C(F)(F)F)cc(Cl)cc12)c1ncnn1-c1cnc(C(=O)NCC#N)cn1 [Compound P71]	≥ 80		≥ 80			≥ 80	≥ 80	≥ 80					≥ 80	
